US20230348362A1, “LIPID COMPOUNDS AND LIPID NANOPARTICLE COMPOSITIONS” (Suzhou Abogen Biosciences Co., Ltd., priority 2021, published 2023)

Tests used:
Format in all cases: physicochemical
[1] = Lipid nanoparticle size and polydispersity by dynamic light scattering; conditions: LNP of lipid/DSPC/cholesterol/PEG-lipid 50:10:38.5:1.5 encapsulating hEPO mRNA
Procedure, shortened: (§1)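 LNPs made from ionizable lipid/DSPC/cholesterol/PEG-lipid (50:10:38.5:1.5) and mRNA in citrate pH 4 by microfluidic mixing, lipid:mRNA about 10:1–30:1 w/w, then dialysed into DPBS and filtered. Size and PDI measured by DLS in backscatter mode; encapsulation efficiency measured by RiboGreen assay.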

[2] = Encapsulation efficiency of lipid nanoparticles, Quant-it Ribogreen RNA assay; conditions: LNP of lipid/DSPC/cholesterol/PEG-lipid 50:10:38.5:1.5 encapsulating hEPO mRNA
Procedure, shortened: as §1

[3] = Apparent pKa of LNP formulations, TNS fluorescence assay; conditions: LNP cationic lipid/DSPC/cholesterol/DMG-PEG 50/10/38.5/1.5 mol %
Procedure, shortened: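 LNPs (cationic lipid/DSPC/cholesterol/DMG-PEG 50/10/38.5/1.5 mol %) diluted to 0.1 mg/mL total lipid in citrate/phosphate/borate/NaCl buffers spanning pH 3–9 with TNS. Fluorescence (ex 325, em 435 nm) read at room temperature; pKa taken as the pH at half-maximal intensity from sigmoidal fit.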

SMILES	polydispersity [1]	size (nm) [1]	Encapsulation Efficiency [2]	Apparent Pka [3]
CCCCCCCC(=O)OCC(CCCCN(CC=C(C)C)CCCCN(CCO)CCCCC(COC(=O)CCCCCCC)COC(=O)CCCCCCC)COC(=O)CCCCCCC [Compound 203]	0.16	131.9 nm	78.17%	6.874
CCCCCCCC(=O)OCC(CCCCN(CCO)CCCCN(CCCCC(COC(=O)CCCCCCC)COC(=O)CCCCCCC)C1CCC1)COC(=O)CCCCCCC [Compound 219]	0.103	91.17 nm	94.13%	6.327
CCCCCCCCC(CCCCCCCC)COC(=O)CCCCCN(CCO)CCN(CCCCCC(=O)OCC(CCCCCCCC)CCCCCCCC)C1CCOC1 (stereo not shown) [Compound 33]	0.052	57.51 nm	87.6%	6.305
CCCCCCCCCCCCCCCCC(CN(CCO)CCN(CC(CCCCCCCCCCCCCCCC)OCCCCCCCC)C1CCC1)OCCCCCCCC (stereo not shown) [Compound 25]	0.068	50.59 nm	90.67%	4.853
CCCCCCCCC(CCCCCC)COC(=O)CCCCCN(CCCCN(CCO)CCCCC(COC(=O)CCCCCCC)COC(=O)CCCCCCC)C1CCCCC1 (stereo not shown) [Compound 192]	0.109	82.66 nm	90.40%	6.707
CCCCCCCCC(CCCCCCCC)COC(=O)CCCCCN(CCCCCC)CCN(CCCCCC(=O)OCC(CCCCCCCC)CCCCCCCC)C1CCC(O)CC1 (stereo not shown) [Compound 53]	0.062	63.7 nm	95.7%	5.872
CCCCCCCCC(CCCCCCCC)COC(=O)CCCCCN(CCC)CCN(CCO)CCCCCC(=O)OCC(CCCCCCCC)CCCCCCCC [Compound 32]	0.04	57.09 nm	92.1%	6.378
CCCCCCCCC(CCCCCCCC)COC(=O)CCCCCN(CCO)CCN(CCCCCC(=O)OCC(CCCCCCCC)CCCCCCCC)Cc1ccncc1 [Compound 37]	0.037	71.53 nm	87.2%	6.988
CCCCCCCCC(CCCCCCCC)COC(=O)CCCCCN(CCNc1c(NC)c(=O)c1=O)CCN(CCCCCC(=O)OCC(CCCCCCCC)CCCCCCCC)C1CCC1 [Compound 81]	0.051	55.27 nm	91.82%	6.298
CCCCCCCCC(CCCCCC)COC(=O)CCCCCN(CCO)CCN(CCCCC(COC(=O)CCCCCCC)COC(=O)CCCCCCC)C1CCCCCC1 (stereo not shown) [Compound 142]	0.055	71.85 nm	87.29%	6.218
CCCCCCCCC(=O)OCC(CCCCN(CCO)CCN(CCCCC(COC(=O)CCCCCCCC)COC(=O)CCCCCCCC)C1CCC1)COC(=O)CCCCCCCC [Compound 166]	0.092	75.12 nm	92.85%	6.513
CCCCCCCCC(CCCCCC)COC(=O)CCCCCN(CCCCN(CCO)CCCCC(COC(=O)CCCCCCC)COC(=O)CCCCCCC)C1CCCCCCC1 (stereo not shown) [Compound 194]	0.15	102.1 nm	84.59%	6.705
CCCCCCCCCCCOC(=O)CCCCCN(CCN(CCO)CCCCCCCC(=O)OCC(CCCCCCCC)CCCCCCCC)C1CCCCC1 [Compound 48]	0.037	73.5 nm	92.1%	6.295
CCCCCCCCC(CCCCCCCC)COC(=O)CCCCCN(CCC)CCN(CCCCCC(=O)OCC(CCCCCCCC)CCCCCCCC)C1CCC(O)CC1 (stereo not shown) [Compound 52]	0.089	67.63 nm	95.6%	6.114
CCCCCCCCC(CCCCCC)CNC(=O)CCCCCN(CCCCCO)CCN(CCCCC(COC(=O)CCCCCCC)COC(=O)CCCCCCC)C1CCCCCC1 (stereo not shown) [Compound 225]	0.033	76.81 nm	92.20%	6.668
CCCCCCCCC(CCCCCC)CNC(=O)CCCCCCN(CCO)CCN(CCCCC(COC(=O)CCCCCCC)COC(=O)CCCCCCC)C1CCCCCCC1 (stereo not shown) [Compound 233]	0.052	76.91 nm	91.15%	6.463
CCCCCCCCCCCCCCCCOC(=O)CCCCCN(CCN(CCO)CCCCCC(=O)OCC(CCCCCCCC)CCCCCCCC)C1CCCCCCC1 [Compound 131]	0.121	56.62 nm	92.18%	6.255
CCCCCCCCCCCOC(=O)CCCCCN(CCN(CCO)CCCCCC(=O)OCC(CCCCCC)CCCCCCCC)C1CCCC1 (stereo not shown) [Compound 5]	0.073	99.12 nm	92.7%	6.56
CCCCCCCCCCCOC(=O)CCCCCN(CCN(CCO)CCCCCC(=O)OCC(CCCCCCCC)CCCCCCCC)C1CCC(F)(F)CC1 [Compound 49]	0.1	55.04 nm	95.5%	6.153
CCCCCCCCC(CCCCCC)COC(=O)CCCCCN(CCO)CCN(CCCCCC(=O)OCC(CCCCCC)CCCCCCCC)C1CCCC1 (stereo not shown) [Compound 8]	0.136	65.15 nm	95.8%	6.401
CCCCC/C=C\CCCC(CCC/C=C\CCCCC)COC(=O)CCCCCN(CCO)CCN(CCCCCC(=O)OCC(CCC/C=C\CCCCC)CCC/C=C\CCCCC)C1CCCCC1 [Compound 18]	0.049	56.64 nm	96.4%	6.018
CCCCCCCCCCC(=O)OCC(CCCCN(CCO)CCN(CCCCC(COC(=O)CCCCCCCCCC)COC(=O)CCCCCCCCCC)C1CCC1)COC(=O)CCCCCCCCCC [Compound 168]	0.107	78.08 nm	91.48%	6.537
CCCCCCCCC(CCCCCCCC)COC(=O)CCOCCN(CCO)CCN(CCOCCC(=O)OCC(CCCCCCCC)CCCCCCCC)C1CCCCC1 [Compound 113]	0.012	89.42 nm	92.93%	6.364
CCCCCCCCC(CCCCCCCC)COC(=O)CCCCCN(CCO)CCN(CCCCCC(=O)OCC(CCCCCCCC)CCCCCCCC)Cc1ccc(O)cc1 [Compound 56]	0.174	57.44 nm	92.96%	6.702
CCCCCCCCC(CCCCCC)CNC(=O)CCCCCN(CCOCCO)CCN(CCCCC(COC(=O)CCCCCCC)COC(=O)CCCCCCC)C1CCCCCCC1 (stereo not shown) [Compound 208]	0.053	85.95 nm	86.63%	6.691
CCCCCCCCC(CCCCCCCC)CNC(=O)CCCCCN(CCO)CCN(CCCCCC(=O)OCC(CCCCCCCC)CCCCCCCC)C1CCCC1 [Compound 16]	0.035	59.48 nm	99.2%	6.757
CCCCCCCCC(CCCCCCCC)CNC(=O)CCCCCN(CCCCN(CCO)CCCCC(COC(=O)CCCCCCC)COC(=O)CCCCCCC)C1CCC1 [Compound 186]	0.139	72.88 nm	91.69%	7.617
CCCCCCCCC(CCCCCC)CNC(=O)CCCCCCN(CCO)CCN(CCCCC(COC(=O)CCCCCCC)COC(=O)CCCCCCC)C1CCCCC1 (stereo not shown) [Compound 231]	0.036	73.66 nm	92.25%	6.712
